Reference: ChEMBL document CHEMBL3259719, “Discovery and Optimization of Tetramethylpiperidinyl Benzamides as Inhibitors of EZH2” (ACS Med Chem Lett, 2014)

Assays:
[1] = biological target: T1, Histone-lysine N-methyltransferase EZH2 (Homo sapiens, UniProt Q15910); assay: Inhibition of wild type EZH2 (unknown origin)
Target sequence in this assay (Q15910 whole entry): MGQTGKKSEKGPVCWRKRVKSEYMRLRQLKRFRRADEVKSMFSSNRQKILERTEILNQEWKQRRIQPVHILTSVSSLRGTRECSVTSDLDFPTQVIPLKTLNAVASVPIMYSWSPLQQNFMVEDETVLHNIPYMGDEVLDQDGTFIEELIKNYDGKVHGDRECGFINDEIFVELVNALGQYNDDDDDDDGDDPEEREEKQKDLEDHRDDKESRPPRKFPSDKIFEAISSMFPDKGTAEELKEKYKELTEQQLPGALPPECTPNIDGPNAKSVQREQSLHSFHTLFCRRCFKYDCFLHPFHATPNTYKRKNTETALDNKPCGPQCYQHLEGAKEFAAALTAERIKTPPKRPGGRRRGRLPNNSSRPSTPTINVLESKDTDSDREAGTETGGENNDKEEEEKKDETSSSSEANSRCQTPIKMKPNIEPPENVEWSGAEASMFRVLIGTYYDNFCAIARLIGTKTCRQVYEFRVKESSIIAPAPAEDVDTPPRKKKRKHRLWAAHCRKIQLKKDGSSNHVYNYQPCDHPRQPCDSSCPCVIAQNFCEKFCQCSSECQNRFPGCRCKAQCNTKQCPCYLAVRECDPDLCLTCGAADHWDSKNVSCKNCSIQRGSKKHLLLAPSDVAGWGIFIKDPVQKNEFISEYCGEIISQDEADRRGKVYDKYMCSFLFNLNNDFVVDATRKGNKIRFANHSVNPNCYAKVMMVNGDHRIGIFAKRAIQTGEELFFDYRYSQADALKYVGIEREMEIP

[2] = biological target: Histone-lysine N-methyltransferase EZH2 (Homo sapiens, UniProt Q15910, Y641N); assay: Inhibition of EZH2 Y641N mutant (unknown origin)
[3] = Growth inhibition of human KARPAS422 cells after 4 days by Cell-Titer luminescence assay; format: functional; details: KARPAS-422, 96 h
[4] = Growth inhibition of human KARPAS422 cells after 14 days by Cell-Titer luminescence assay; format: functional; details: KARPAS-422, 336 h
[5] = Growth inhibition of human KARPAS422 cells after 17 days by Cell-Titer luminescence assay; format: functional; details: KARPAS-422, 408 h
[6] = Passive permeability from basolateral to apical side in human Caco2 cells; format: ADME, cell-based; details: Caco-2, read-out: permeability
[7] = biological target: T1, Histone-lysine N-methyltransferase EZH2; assay: Inhibition of EZH2 in human HeLa cells assessed as reduction in H3K27me3 level; format: cell-based
Target sequence in this assay (Q15910 whole entry, looked up): as the sequence (Q15910 whole entry) above

[8] = Growth inhibition of human KARPAS422 cells after 10 days by Cell-Titer luminescence assay; format: functional; details: KARPAS-422, 240 h
[9] = Growth inhibition of human KARPAS422 cells after 7 days by Cell-Titer luminescence assay; format: functional; details: KARPAS-422, 168 h
[10] = Passive permeability from apical to basolateral side in human Caco2 cells; format: ADME, cell-based; details: Caco-2, read-out: permeability
[11] = Efflux ratio of passive permeability in human Caco2 cells; format: ADME, cell-based; details: Caco-2

Sequence of Histone-lysine N-methyltransferase EZH2 (Homo sapiens, UniProt Q15910, Y641N) (Q15910 whole entry Y641N): as the sequence (Q15910 whole entry) above, with Y641N counted along it

| IC50 [1] [µM] | SMILES | further results |
| --- | --- | --- |
| 0.84 | CC1(C)CC(NC(=O)c2ccc(Oc3ccccc3C#N)c3ccccc23)CC(C)(C)N1 |  |
| 4.9 | CC1(C)CC(NC(=O)c2ccc(Oc3ccccc3C#N)c(Cl)c2)CC(C)(C)N1CCO | IC50 [2]: 62 µM |
| > 80 | CN(c1ccccc1)c1ccc(C(=O)NC2CC(C)(C)NC(C)(C)C2)cc1 |  |
| 57 | CC1(C)CC(NC(=O)c2ccc(C(=O)c3ccccc3)cc2)CC(C)(C)N1 |  |
| 0.14 | Cc1cccc(Oc2ccc(C(=O)NC3CC(C)(C)NC(C)(C)C3)cc2Cl)c1C#N | IC50 [2]: 1.4 µM |
| > 80 | CC1(C)CC(NC(=O)c2ccc(Oc3ccccc3C#N)c(Cl)c2)C(F)(F)C(C)(C)N1 (stereo unspecified) | IC50 [2]: > 80 µM |
| 51 | CC1(C)CC(NC(=O)c2ccc(Oc3ccccc3)cc2)CC(C)(C)N1 |  |
| 0.32 | CC1(C)CC(NC(=O)c2ccc(Oc3ccccc3C#N)c(Br)c2)CC(C)(C)N1 |  |
| 0.5 | CC1(C)CC(NC(=O)c2ccc(Oc3ccccc3C#N)c(C3CC3)c2)CC(C)(C)N1 |  |
| > 80 | Cc1ccc(Oc2ccc(C(=O)NC3CC(C)(C)NC(C)(C)C3)cc2)cc1 |  |
| 0.23 | CC1(C)CC(NC(=O)c2ccc(Oc3cccc(-c4cn[nH]c4)c3C#N)c(Cl)c2)CC(C)(C)N1 | IC50 [2]: 4 µM |
| > 80 | CC1(C)CC(NC(=O)c2ccc(Nc3ccccc3)cc2)CC(C)(C)N1 |  |
| > 80 | CC1(C)CC(NC(=O)c2ccc(Cc3ccccc3)cc2)CC(C)(C)N1 |  |
| > 80 | CC(c1ccccc1)c1ccc(C(=O)NC2CC(C)(C)NC(C)(C)C2)cc1 (stereo unspecified) |  |
| 0.172 | CC1(C)CC(OC(=O)c2ccc(Oc3cccc(-c4ccnnc4)c3C#N)c(Cl)c2)CC(C)(C)N1 | IC50 [2]: 2.5 µM; Papp B→A [6]: 47.7 ×10⁻⁶ cm/s; Papp A→B [10]: 20.4 ×10⁻⁶ cm/s; efflux ratio [11]: 2.3 |
| > 80 | CC1(C)CC(NC(=O)c2ccc([S+]([O-])c3ccccc3)cc2)CC(C)(C)N1 (stereo unspecified) |  |
| 48 | CC1(C)CC(NC(=O)c2ccc(COc3ccccc3)cc2)CC(C)(C)N1 |  |
| 3.6 | CC1(C)CC(NC(=O)c2ccc(Oc3ccccc3OCc3ccccc3)cc2)CC(C)(C)N1 |  |
| 0.189 | CC1(C)CC(COc2ccc(Oc3cccc(-c4ccncn4)c3C#N)c(Cl)c2)CC(C)(C)N1 | IC50 [2]: 2 µM; Papp B→A [6]: 2.1 ×10⁻⁶ cm/s; Activity [7]: > 15 µM; Papp A→B [10]: 0.5 ×10⁻⁶ cm/s; efflux ratio [11]: 4.4 |
| > 80 | COc1cc(Oc2ccccc2C#N)ccc1C(=O)NC1CC(C)(C)NC(C)(C)C1 |  |
| 0.081 | CC1(C)CC(NC(=O)c2ccc(Oc3cccc(-c4ccncc4)c3C#N)c(Cl)c2)CC(C)(C)N1 | IC50 [2]: 0.56 µM |
| 1.5 | CC1(C)CC(NC(=O)c2ccc(Oc3cccc(-c4ccnnc4)c3C#N)c(Cl)c2)CC(C)(C)O1 | IC50 [2]: 66 µM; Papp B→A [6]: 24.8 ×10⁻⁶ cm/s; Papp A→B [10]: 21.9 ×10⁻⁶ cm/s; efflux ratio [11]: 1.1 |
| 7.9 | CC1(C)CC(NC(=O)c2ccc(Oc3ccccc3C(C)(C)C)cc2)CC(C)(C)N1 |  |

Further lines, the molecule ahead of its results:

| SMILES | IC50 [1] [µM] | further results |
| --- | --- | --- |
| CC1(C)CC(NC(=O)c2ccc(Oc3ccccc3C#N)cc2Cl)CC(C)(C)N1 | 37 |  |
| CC1CC(NC(=O)c2ccc(Oc3cccc(-c4ccnnc4)c3C#N)c(Cl)c2)CC(C)(C)N1 (stereo unspecified) | 0.871 | IC50 [2]: 10 µM |
| CC1(C)CC(NC(=O)c2ccc(S(=O)(=O)c3ccccc3)cc2)CC(C)(C)N1 | > 80 |  |
| COc1ccccc1Oc1ccc(C(=O)NC2CC(C)(C)NC(C)(C)C2)cc1 | 59 |  |
| CC1(C)CC(NC(=O)c2ccc(Sc3ccccc3)cc2)CC(C)(C)N1 | 33 |  |
| CC1(C)CC(NC(=O)c2ccc(Oc3ccccc3C#N)c(Cl)c2)CC(C)(C)N1 | 0.45 |  |
| Cc1cccc(Oc2ccc(C(=O)NC3CC(C)(C)NC(C)(C)C3)cc2)c1 | 61 |  |
| CC1(C)CC(NC(=O)c2cc(F)c(Oc3ccccc3C#N)c(Br)c2)CC(C)(C)N1 | 1 |  |
| CC1(C)CC(NC(=O)c2ccc(Oc3ccccc3C#N)cc2F)CC(C)(C)N1 | 15 |  |
| CC1CC(NC(=O)c2ccc(Oc3cccc(-c4ccnnc4)c3C#N)c(Cl)c2)CC(C)N1 (stereo unspecified) | 2.1 | IC50 [2]: 10 µM |
| CC1(C)CC(NC(=O)c2ccc(Oc3ccccc3C#N)cc2)CC(C)(C)N1 | 3.4 |  |
| CC1(C)CC(NC(=O)c2ccc(Oc3cccc(Cl)c3C#N)c(Cl)c2)CC(C)(C)N1 | 0.14 | IC50 [2]: 2.2 µM |
| CC1(C)CC(NC(=O)c2ccc(Oc3cccc(-c4ccnnc4)c3C#N)c(Cl)c2)CC(C)(C)N1 |  | GI50 [3]: 70 µM; GI50 [4]: 13.2 µM; GI50 [5]: 9.1 µM; Papp B→A [6]: 3.29 ×10⁻⁶ cm/s; Activity [7]: 7 µM; GI50 [8]: 23 µM; GI50 [9]: 24.8 µM; Papp A→B [10]: 0.19 ×10⁻⁶ cm/s |
| CC1(C)CC(NC(=O)c2ccc(Oc3cccc(-c4ccncn4)c3C#N)c(Cl)c2)CC(C)(C)N1 | 0.024 | IC50 [2]: 0.13 µM |
| Cc1cc(C(=O)NC2CC(C)(C)NC(C)(C)C2)ccc1Oc1ccccc1C#N | 0.92 |  |
| CC1(C)CC(NC(=O)c2ccc(Oc3ccccc3C#N)c(C#N)c2)CC(C)(C)N1 | 0.93 |  |
| CC1(C)CC(NC(=O)c2ccc(Oc3ccccc3C#N)c(F)c2)CC(C)(C)N1 | 1 |  |
| CC1(C)CC(NC(=O)c2ccc(Oc3ccccc3Cl)cc2)CC(C)(C)N1 | 29 |  |
| Cc1cc(C(=O)NC2CC(C)(C)NC(C)(C)C2)cc(C)c1Oc1ccccc1C#N | 51 |  |
| C#Cc1ccccc1Oc1ccc(C(=O)NC2CC(C)(C)NC(C)(C)C2)cc1 | 19 |  |
| Cc1ccccc1Oc1ccc(C(=O)NC2CC(C)(C)NC(C)(C)C2)cc1 | 48 |  |
| CC1(C)CC(NC(=O)c2ccc(C3(c4ccccc4)CC3)cc2)CC(C)(C)N1 | > 80 |  |
| CC1(C)CC(NC(=O)c2ccc(C(O)c3ccccc3)cc2)CC(C)(C)N1 (stereo unspecified) | > 80 |  |
| CC1(C)CC(NC(=O)c2ccc(OCc3ccccc3)cc2)CC(C)(C)N1 | > 80 |  |
